Source: ChEMBL document CHEMBL1146373, “Free-radical-scavenging effect of carbazole derivatives on AAPH-induced hemolysis of human erythrocytes” (2007)

Experiments:
Type in all cases: functional
[1] = tested on: Erythrocyte; experiment: Inhibition of AAPH-induced hemolysis in human erythrocytes assessed as hemolysis time at 9.26 uM
[2] = tested on: Erythrocyte; experiment: Inhibition of AAPH-induced hemolysis in human erythrocytes assessed as hemolysis inhibition time at 15.4 uM
[3] = tested on: Erythrocyte; experiment: Inhibition of AAPH-induced hemolysis in human erythrocytes assessed as hemolysis inhibition time at 6.17 uM
[4] = tested on: Erythrocyte; experiment: Inhibition of AAPH-induced hemolysis in human erythrocytes assessed as hemolysis inhibition time at 20.6 uM
[5] = tested on: Erythrocyte; experiment: Inhibition of AAPH-induced hemolysis in human erythrocytes assessed as hemolysis time at 12.3 uM
[6] = tested on: Erythrocyte; experiment: Inhibition of AAPH-induced hemolysis in human erythrocytes assessed as hemolysis inhibition time at 12.3 uM
[7] = tested on: Erythrocyte; experiment: Inhibition of AAPH-induced hemolysis in human erythrocytes assessed as hemolysis inhibition time at 9.26 uM
[8] = tested on: Erythrocyte; experiment: Inhibition of AAPH-induced hemolysis in human erythrocytes assessed as hemolysis time at 20.6 uM
[9] = tested on: Erythrocyte; experiment: Inhibition of AAPH-induced hemolysis in human erythrocytes assessed as hemolysis time at 15.4 uM
[10] = tested on: Erythrocyte; experiment: Inhibition of AAPH-induced hemolysis in human erythrocytes assessed as hemolysis time at 6.17 uM
[11] = tested on: Erythrocyte; experiment: Inhibition of AAPH-induced hemolysis in human erythrocytes assessed as hemolysis inhibition time at 6 uM
[12] = tested on: Erythrocyte; experiment: Inhibition of AAPH-induced hemolysis in human erythrocytes assessed as hemolysis inhibition time at 3 uM
[13] = tested on: Erythrocyte; experiment: Inhibition of AAPH-induced hemolysis in human erythrocytes assessed as hemolysis time at 6 uM
[14] = tested on: Erythrocyte; experiment: Inhibition of AAPH-induced hemolysis in human erythrocytes assessed as hemolysis inhibition time at 15 uM
[15] = tested on: Erythrocyte; experiment: Inhibition of AAPH-induced hemolysis in human erythrocytes assessed as hemolysis time at 3 uM
[16] = tested on: Erythrocyte; experiment: Inhibition of AAPH-induced hemolysis in human erythrocytes assessed as hemolysis time at 15 uM
[17] = tested on: Erythrocyte; experiment: Inhibition of AAPH-induced hemolysis in human erythrocytes assessed as hemolysis inhibition time at 12 uM
[18] = tested on: Erythrocyte; experiment: Inhibition of AAPH-induced hemolysis in human erythrocytes assessed as hemolysis inhibition time at 9 uM
[19] = tested on: Erythrocyte; experiment: Inhibition of AAPH-induced hemolysis in human erythrocytes assessed as hemolysis time at 9 uM
[20] = tested on: Erythrocyte; experiment: Inhibition of AAPH-induced hemolysis in human erythrocytes assessed as hemolysis time at 12 uM
[21] = tested on: Erythrocyte; experiment: Inhibition of AAPH-induced hemolysis in human erythrocytes assessed as hemolysis inhibition time at 24.8 uM
[22] = tested on: Erythrocyte; experiment: Inhibition of AAPH-induced hemolysis in human erythrocytes assessed as hemolysis inhibition time at 20.7 uM
[23] = tested on: Erythrocyte; experiment: Inhibition of AAPH-induced hemolysis in human erythrocytes assessed as hemolysis time at 12.4 uM
[24] = tested on: Erythrocyte; experiment: Inhibition of AAPH-induced hemolysis in human erythrocytes assessed as hemolysis time at 20.7 uM
[25] = tested on: Erythrocyte; experiment: Inhibition of AAPH-induced hemolysis in human erythrocytes assessed as hemolysis inhibition time at 12.4 uM
[26] = tested on: Erythrocyte; experiment: Inhibition of AAPH-induced hemolysis in human erythrocytes assessed as hemolysis time at 24.8 uM
[27] = tested on: Erythrocyte; experiment: Inhibition of AAPH-induced hemolysis in human erythrocytes assessed as hemolysis inhibition time at 16.5 uM
[28] = tested on: Erythrocyte; experiment: Inhibition of AAPH-induced hemolysis in human erythrocytes assessed as hemolysis time at 8.26 uM
[29] = tested on: Erythrocyte; experiment: Inhibition of AAPH-induced hemolysis in human erythrocytes assessed as hemolysis time at 16.5 uM
[30] = tested on: Erythrocyte; experiment: Inhibition of AAPH-induced hemolysis in human erythrocytes assessed as hemolysis inhibition time at 8.26 uM
[31] = tested on: Erythrocyte; experiment: Inhibition of AAPH-induced hemolysis in human erythrocytes assessed as hemolysis time at 50.8 uM
[32] = tested on: Erythrocyte; experiment: Inhibition of AAPH-induced hemolysis in human erythrocytes assessed as hemolysis inhibition time at 50.8 uM
[33] = tested on: Erythrocyte; experiment: Inhibition of AAPH-induced hemolysis in human erythrocytes assessed as hemolysis inhibition time at 61 uM
[34] = tested on: Erythrocyte; experiment: Inhibition of AAPH-induced hemolysis in human erythrocytes assessed as hemolysis time at 30.5 uM
[35] = tested on: Erythrocyte; experiment: Inhibition of AAPH-induced hemolysis in human erythrocytes assessed as hemolysis inhibition time at 30.5 uM
[36] = tested on: Erythrocyte; experiment: Inhibition of AAPH-induced hemolysis in human erythrocytes assessed as hemolysis time at 37.3 uM
[37] = tested on: Erythrocyte; experiment: Inhibition of AAPH-induced hemolysis in human erythrocytes assessed as hemolysis time at 61 uM
[38] = tested on: Erythrocyte; experiment: Inhibition of AAPH-induced hemolysis in human erythrocytes assessed as hemolysis inhibition time at 20.3 uM
[39] = tested on: Erythrocyte; experiment: Inhibition of AAPH-induced hemolysis in human erythrocytes assessed as hemolysis time at 20.3 uM
[40] = tested on: Erythrocyte; experiment: Inhibition of AAPH-induced hemolysis in human erythrocytes assessed as hemolysis inhibition time at 37.3 uM
[41] = tested on: Erythrocyte; experiment: Inhibition of AAPH-induced hemolysis in human erythrocytes assessed as hemolysis time at 13.9 uM
[42] = tested on: Erythrocyte; experiment: Inhibition of AAPH-induced hemolysis in human erythrocytes assessed as hemolysis time at 15.5 uM
[43] = tested on: Erythrocyte; experiment: Inhibition of AAPH-induced hemolysis in human erythrocytes assessed as hemolysis inhibition time at 9.27 uM
[44] = tested on: Erythrocyte; experiment: Inhibition of AAPH-induced hemolysis in human erythrocytes assessed as hemolysis time at 10.8 uM
[45] = tested on: Erythrocyte; experiment: Inhibition of AAPH-induced hemolysis in human erythrocytes assessed as hemolysis inhibition time at 13.9 uM
[46] = tested on: Erythrocyte; experiment: Inhibition of AAPH-induced hemolysis in human erythrocytes assessed as hemolysis inhibition time at 15.5 uM
[47] = tested on: Erythrocyte; experiment: Inhibition of AAPH-induced hemolysis in human erythrocytes assessed as hemolysis inhibition time at 10.8 uM
[48] = tested on: Erythrocyte; experiment: Inhibition of AAPH-induced hemolysis in human erythrocytes assessed as hemolysis time at 9.27 uM

SMILES: c1ccc2c(c1)[nH]c1ccccc12 [CARBAZOLE]
- Activity [1]: 298 min
- Activity [2]: 167 min
- Activity [3]: 68 min
- Activity [4]: 209 min
- Activity [5]: 327 min
- Activity [6]: 130 min
- Activity [7]: 101 min
- Activity [8]: 406 min
- Activity [9]: 364 min
- Activity [10]: 265 min

SMILES: c1ccc(Nc2ccccc2)cc1 [DIPHENYLAMINE]
- Activity [11]: 113 min
- Activity [12]: 24 min
- Activity [13]: 346 min
- Activity [14]: 256 min
- Activity [15]: 257 min
- Activity [16]: 489 min
- Activity [17]: 225 min
- Activity [18]: 167 min
- Activity [19]: 400 min
- Activity [20]: 458 min

SMILES: C1=Cc2ccccc2Nc2ccccc21 [IMINOSTILBENE]
- Activity [21]: 169 min
- Activity [22]: 153 min
- Activity [23]: 297 min
- Activity [24]: 365 min
- Activity [25]: 85 min
- Activity [26]: 381 min
- Activity [27]: 121 min
- Activity [28]: 264 min
- Activity [29]: 333 min
- Activity [30]: 52 min

SMILES: c1ccc2c(c1)Nc1ccccc1S2 [PHENOTHIAZINE]
- Activity [31]: 408 min
- Activity [32]: 197 min
- Activity [33]: 240 min
- Activity [34]: 330 min
- Activity [35]: 119 min
- Activity [36]: 368 min
- Activity [37]: 451 min
- Activity [38]: 64 min
- Activity [39]: 275 min
- Activity [40]: 157 min

SMILES: c1ccc2c(c1)Nc1ccccc1O2 [PHENOXAZINE]
- Activity [41]: 461 min
- Activity [42]: 509 min
- Activity [43]: 158 min
- Activity [23]: 425 min
- Activity [44]: 379 min
- Activity [25]: 238 min
- Activity [45]: 274 min
- Activity [46]: 322 min
- Activity [47]: 192 min
- Activity [48]: 345 min
